In ChEMBL document CHEMBL1133113, “Fast calculation of molecular polar surface area as a sum of fragment-based contributions and its application to the prediction of drug transport properties” (J Med Chem, 2000) one finds Fa data, which are given here for 14 molecules.

The data set can be described thus: Percent of drug absorbed by human intestine after oral administration. To be noted: in vivo. The format is ADME, organism-based.

On to `O=C(O)c1cc(/N=N/c2ccc(O)c(C(=O)O)c2)ccc1O` [OLSALAZINE], for which the Fa turned out to be 2.3%.

`CCN1CCCC1CNC(=O)c1cc(S(N)(=O)=O)ccc1OC` (centres undefined) [SULPIRIDE] had a Fa of 36%.

Turning to `NC[C@H]1CC[C@H](C(=O)O)CC1` [TRANEXAMIC ACID], the Fa was determined as 55%.

`CC(=O)Nc1ccc(OCC(O)CNC(C)C)cc1` (centres undefined) [PRACTOLOL] gave a Fa of 95%.

`OC[C@@H](O)[C@@H](O)[C@H](O)[C@H](O)CO` [MANNITOL] had a Fa of 26%.

In turn, `OC[C@H]1O[C@H](OC[C@H]2O[C@H](O[C@]3(CO)O[C@H](CO)[C@@H](O)[C@@H]3O)[C@H](O)[C@@H](O)[C@@H]2O)[C@H](O)[C@@H](O)[C@H]1O` [RAFFINOSE] returned a Fa of 0.3%.

`OC[C@H]1O[C@@H](O[C@@H]2[C@@H](CO)O[C@](O)(CO)[C@H]2O)[C@H](O)[C@@H](O)[C@H]1O` [LACTULOSE]: the Fa came out at 0.6%.

Turning to `C=CCOc1ccccc1OCC(O)CNC(C)C` (centres undefined) [OXPRENOLOL], the Fa was 97%.

For the molecule `Cc1cc(=O)n(-c2ccccc2)n1C` [ANTIPYRINE], the Fa amounted to 97%.

As for `Cc1ccccc1N1C(=O)c2cc(S(N)(=O)=O)c(Cl)cc2NC1C` (centres undefined) [METOLAZONE], the Fa turned out to be 64%.

With `O=C(O)c1cc(/N=N/c2ccc(S(=O)(=O)Nc3ccccn3)cc2)ccc1O` [SULFASALAZINE], the Fa is 12%.

Regarding `C=CCc1ccccc1OCC(O)CNC(C)C` (centres undefined) [ALPRENOLOL], the Fa was 96%.

For the molecule `CC(C)NCC(O)COc1cccc2[nH]ccc12` (centres undefined) [PINDOLOL], the Fa was found to be 92%.

`O=C(O)P(=O)(O)O` [FOSCARNET]: the Fa was determined as 17%.
